According to PubChem BioAssay (NCI):
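Cells were grown in 96-well plates and exposed to each compound for 48 hours at five concentrations; endpoints were interpolated linearly between bracketing concentrations, or set to the highest concentration if not reached. GI50 = concentration required for 50% inhibition of growth. TGI is the concentration that stops growth completely.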

Legend:
Assay in all cases: DTP human tumour cell line panel, 48 h
SK-MEL-5 melanoma = test system: SK-MEL-5 melanoma
HS 578T breast = test system: HS 578T breast
SK-MEL-28 melanoma = test system: SK-MEL-28 melanoma
MCF7 breast = test system: MCF7 breast
K-562 leukemia = test system: K-562 leukemia
SF-295 CNS = test system: SF-295 CNS
U251 CNS = test system: U251 CNS
HCT-15 colon = test system: HCT-15 colon
SK-OV-3 ovarian = test system: SK-OV-3 ovarian
SNB-19 CNS = test system: SNB-19 CNS
UACC-257 melanoma = test system: UACC-257 melanoma
ACHN renal = test system: ACHN renal
SR leukemia = test system: SR leukemia
SF-268 CNS = test system: SF-268 CNS
LOX IMVI melanoma = test system: LOX IMVI melanoma
CCRF-CEM leukemia = test system: CCRF-CEM leukemia
NCI-H23 lung = test system: NCI-H23 lung
MDA-MB-435 = test system: MDA-MB-435
OVCAR-5 ovarian = test system: OVCAR-5 ovarian
MOLT-4 leukemia = test system: MOLT-4 leukemia
SF-539 CNS = test system: SF-539 CNS
SN12C renal = test system: SN12C renal
UO-31 renal = test system: UO-31 renal
TK-10 renal = test system: TK-10 renal
MDA-MB-231 breast = test system: MDA-MB-231 breast
SNB-75 CNS = test system: SNB-75 CNS
A498 renal = test system: A498 renal
RPMI-8226 leukemia = test system: RPMI-8226 leukemia
MALME-3M melanoma = test system: MALME-3M melanoma
A549 NSCLC = test system: A549 NSCLC
SK-MEL-2 melanoma = test system: SK-MEL-2 melanoma
HCC-2998 colon = test system: HCC-2998 colon
NCI-H226 lung = test system: NCI-H226 lung
CAKI-1 renal = test system: CAKI-1 renal
EKVX NSCLC = test system: EKVX NSCLC
NCI-H460 lung = test system: NCI-H460 lung
BT-549 breast = test system: BT-549 breast
HOP-92 NSCLC = test system: HOP-92 NSCLC
OVCAR-3 ovarian = test system: OVCAR-3 ovarian
HL-60(TB) leukemia = test system: HL-60(TB) leukemia
SW-620 colon = test system: SW-620 colon
HT29 colon = test system: HT29 colon
DU-145 prostate = test system: DU-145 prostate
IGROV1 ovarian = test system: IGROV1 ovarian
KM12 colon = test system: KM12 colon
786-0 renal = test system: 786-0 renal
NCI/ADR-RES ovarian = test system: NCI/ADR-RES ovarian
COLO 205 colon = test system: COLO 205 colon
HCT-116 colon = test system: HCT-116 colon
OVCAR-4 ovarian = test system: OVCAR-4 ovarian
UACC-62 melanoma = test system: UACC-62 melanoma
PC-3 prostate = test system: PC-3 prostate
NCI-H522 lung = test system: NCI-H522 lung
OVCAR-8 ovarian = test system: OVCAR-8 ovarian
HOP-62 NSCLC = test system: HOP-62 NSCLC
RXF 393 renal = test system: RXF 393 renal

SMILES: Cc1ccc(/C=C/c2c(C(=O)/C=C/c3ccc(C(F)(F)F)cc3)c(C)nc3ccccc23)cc1
- GI50 (SK-MEL-5 melanoma): 1540 nM
- TGI (SK-MEL-5 melanoma): 2870 nM
- GI50 (HS 578T breast): 1660 nM
- TGI (HS 578T breast): 4630 nM
- GI50 (SK-MEL-28 melanoma): 1930 nM
- TGI (SK-MEL-28 melanoma): 3630 nM
- GI50 (MCF7 breast): 557 nM
- TGI (MCF7 breast): 2300 nM
- GI50 (K-562 leukemia): 1550 nM
- TGI (K-562 leukemia): > 100000 nM
- GI50 (SF-295 CNS): 1740 nM
- TGI (SF-295 CNS): 3140 nM
- GI50 (U251 CNS): 1470 nM
- TGI (U251 CNS): 3130 nM
- GI50 (HCT-15 colon): 890 nM
- TGI (HCT-15 colon): 3490 nM
- GI50 (SK-OV-3 ovarian): 1800 nM
- TGI (SK-OV-3 ovarian): 3600 nM
- GI50 (SNB-19 CNS): 1550 nM
- TGI (SNB-19 CNS): 2880 nM
- GI50 (UACC-257 melanoma): 2150 nM
- TGI (UACC-257 melanoma): 4950 nM
- GI50 (ACHN renal): 1400 nM
- TGI (ACHN renal): 2700 nM
- GI50 (SR leukemia): 451 nM
- TGI (SR leukemia): 4970 nM
- GI50 (SF-268 CNS): 1570 nM
- TGI (SF-268 CNS): 3090 nM
- GI50 (LOX IMVI melanoma): 1120 nM
- TGI (LOX IMVI melanoma): 2330 nM
- GI50 (CCRF-CEM leukemia): 411 nM
- TGI (CCRF-CEM leukemia): > 100000 nM
- GI50 (NCI-H23 lung): 1290 nM
- TGI (NCI-H23 lung): 3130 nM
- GI50 (MDA-MB-435): 1490 nM
- TGI (MDA-MB-435): 2890 nM
- GI50 (OVCAR-5 ovarian): 1840 nM
- TGI (OVCAR-5 ovarian): 4250 nM
- GI50 (MOLT-4 leukemia): 625 nM
- TGI (MOLT-4 leukemia): > 100000 nM
- GI50 (SF-539 CNS): 1790 nM
- TGI (SF-539 CNS): 3260 nM
- GI50 (SN12C renal): 1510 nM
- TGI (SN12C renal): 2970 nM
- GI50 (UO-31 renal): 1010 nM
- TGI (UO-31 renal): 2170 nM
- GI50 (TK-10 renal): 2360 nM
- TGI (TK-10 renal): 3900 nM
- GI50 (MDA-MB-231 breast): 1650 nM
- TGI (MDA-MB-231 breast): 3430 nM
- GI50 (SNB-75 CNS): 1230 nM
- TGI (SNB-75 CNS): 2480 nM
- GI50 (A498 renal): 1770 nM
- TGI (A498 renal): 3240 nM
- GI50 (RPMI-8226 leukemia): 460 nM
- TGI (RPMI-8226 leukemia): 2920 nM
- GI50 (MALME-3M melanoma): 1700 nM
- TGI (MALME-3M melanoma): 3080 nM
- GI50 (A549 NSCLC): 2030 nM
- TGI (A549 NSCLC): 4760 nM
- GI50 (SK-MEL-2 melanoma): 1830 nM
- TGI (SK-MEL-2 melanoma): 3920 nM
- GI50 (HCC-2998 colon): 1480 nM
- TGI (HCC-2998 colon): 2810 nM
- GI50 (NCI-H226 lung): 1500 nM
- TGI (NCI-H226 lung): 3030 nM
- GI50 (CAKI-1 renal): 1110 nM
- TGI (CAKI-1 renal): 2320 nM
- GI50 (EKVX NSCLC): 1530 nM
- TGI (EKVX NSCLC): 3360 nM
- GI50 (NCI-H460 lung): 1530 nM
- TGI (NCI-H460 lung): 3220 nM
- GI50 (BT-549 breast): 1580 nM
- TGI (BT-549 breast): 3340 nM
- GI50 (HOP-92 NSCLC): 1430 nM
- TGI (HOP-92 NSCLC): 2980 nM
- GI50 (OVCAR-3 ovarian): 1550 nM
- TGI (OVCAR-3 ovarian): 3820 nM
- GI50 (HL-60(TB) leukemia): 1250 nM
- TGI (HL-60(TB) leukemia): 3660 nM
- GI50 (SW-620 colon): 1290 nM
- TGI (SW-620 colon): 4380 nM
- GI50 (HT29 colon): 674 nM
- TGI (HT29 colon): 4570 nM
- GI50 (DU-145 prostate): 1560 nM
- TGI (DU-145 prostate): 2900 nM
- GI50 (IGROV1 ovarian): 600 nM
- TGI (IGROV1 ovarian): 2020 nM
- GI50 (KM12 colon): 2060 nM
- TGI (KM12 colon): 5030 nM
- GI50 (786-0 renal): 1700 nM
- TGI (786-0 renal): 3180 nM
- GI50 (NCI/ADR-RES ovarian): 2220 nM
- TGI (NCI/ADR-RES ovarian): 5920 nM
- GI50 (COLO 205 colon): 2210 nM
- TGI (COLO 205 colon): 5290 nM
- GI50 (HCT-116 colon): 496 nM
- TGI (HCT-116 colon): 2090 nM
- GI50 (OVCAR-4 ovarian): 1610 nM
- TGI (OVCAR-4 ovarian): 3370 nM
- GI50 (UACC-62 melanoma): 1550 nM
- TGI (UACC-62 melanoma): 3020 nM
- GI50 (PC-3 prostate): 1640 nM
- TGI (PC-3 prostate): 3680 nM
- GI50 (NCI-H522 lung): 1330 nM
- TGI (NCI-H522 lung): 4350 nM
- GI50 (OVCAR-8 ovarian): 1880 nM
- TGI (OVCAR-8 ovarian): 6430 nM
- GI50 (HOP-62 NSCLC): 1880 nM
- TGI (HOP-62 NSCLC): 3730 nM
- GI50 (RXF 393 renal): 1120 nM
- TGI (RXF 393 renal): 2410 nM
